Results as given in patent US20240226115A1, “AXL INHIBITOR COMPOUNDS” (ARCUS BIOSCIENCES, INC., priority 2021, published 2024).

Each compound was assayed against T1, recombinant human TYRO3 (Homo sapiens, UniProt Q06418) (assay: HTRF KinEASE-TK biochemical potency, TYRO3). Conditions: 1 nM TYRO3, 700 μM ATP.
T1 construct: purchased Invitrogen
T1 sequence (Q06418 41-890): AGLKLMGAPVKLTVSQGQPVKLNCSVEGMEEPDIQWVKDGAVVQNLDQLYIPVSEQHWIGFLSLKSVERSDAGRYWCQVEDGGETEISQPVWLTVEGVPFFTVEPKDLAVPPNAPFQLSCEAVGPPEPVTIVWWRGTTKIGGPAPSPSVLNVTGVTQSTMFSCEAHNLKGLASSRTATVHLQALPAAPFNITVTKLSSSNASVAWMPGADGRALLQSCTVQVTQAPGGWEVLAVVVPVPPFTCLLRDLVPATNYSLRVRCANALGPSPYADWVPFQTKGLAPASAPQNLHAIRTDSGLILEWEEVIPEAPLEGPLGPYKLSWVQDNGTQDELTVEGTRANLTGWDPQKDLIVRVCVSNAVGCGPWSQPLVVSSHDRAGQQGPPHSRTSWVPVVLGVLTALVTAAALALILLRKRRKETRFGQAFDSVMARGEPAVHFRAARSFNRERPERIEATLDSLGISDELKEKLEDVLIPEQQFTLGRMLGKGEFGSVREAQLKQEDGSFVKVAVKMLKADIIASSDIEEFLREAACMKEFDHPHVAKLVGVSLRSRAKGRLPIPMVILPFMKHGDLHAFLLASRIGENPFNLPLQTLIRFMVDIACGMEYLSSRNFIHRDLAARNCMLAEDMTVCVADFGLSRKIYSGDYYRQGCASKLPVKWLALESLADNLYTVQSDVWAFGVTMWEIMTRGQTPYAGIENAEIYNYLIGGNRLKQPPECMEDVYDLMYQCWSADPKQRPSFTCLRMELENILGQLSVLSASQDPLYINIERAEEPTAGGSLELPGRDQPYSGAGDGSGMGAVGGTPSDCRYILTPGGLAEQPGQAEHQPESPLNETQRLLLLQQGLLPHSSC
Outline: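 Enzyme preincubated with compound 1 h at RT; final 5 nM AXL or 1 nM TYRO3/MER, 800 nM TK substrate-biotin, 700 μM ATP, HEPES pH 7.4, MgCl2, 1% DMSO, 2 h at RT. HTRF 665/620 ratio read after streptavidin-XL665/cryptate antibody detection; percent activity relative to DMSO and pre-stopped controls.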

SMILES | IC50 [nM]
COCCN1CCc2cc(-c3cnc4[nH]nc(-c5ccc6c(c5)OCCNC6=O)c4c3)ccc2C1 [Example 13, 8-(5-(2-(2-Methoxyethyl)-1,2,3,4-tetrahydroisoquinolin-6-yl)-1H-pyrazolo[3,4-b]pyridin-3-yl)-3,4-dihydrobenzo[f][1,4]oxazepin-5(2H)-one] | < 100
C[C@@H]1CCCN1C1CCc2ccc(-c3cnc4[nH]nc(-c5cc(F)c6c(c5)OCCNC6=O)c4c3)cc2CC1 (stereo partly drawn) [Example 6, 6-Fluoro-8-(5-{7-[(2R)-2-methylpyrrolidin-1-yl]-6,7,8,9-tetrahydro-5H-benzo[7]annulen-2-yl}-1H-pyrazolo[3,4-b]pyridin-3-yl)-2,3,4,5-tetrahydro-1,4-benzoxazepin-5-one] | < 100
CC1(O)CCOc2cc(-c3n[nH]c4ncc(-c5ccc6c(c5)CC[C@@H](N5CCCC5)CC6)cc34)ccc21 (stereo partly drawn) [Example 31, 4-Methyl-7-{5-[(7S)-7-(pyrrolidin-1-yl)-6,7,8,9-tetrahydro-5H-benzo[7]annulen-2-yl]-1H-pyrazolo[3,4-b]pyridin-3-yl}-3,4-dihydro-2H-1-benzopyran-4-ol] | < 100
O=C1NCCOc2cc(-c3n[nH]c4ncc(-c5ccc6c(c5)CCC(N5CCOCC5)CC6)cc34)ccc21 (centres unmarked) [Example 47, 8-{5-[7-(Morpholin-4-yl)-6,7,8,9-tetrahydro-5H-benzo[7]annulen-2-yl]-1H-pyrazolo[3,4-b]pyridin-3-yl}-2,3,4,5-tetrahydro-1,4-benzoxazepin-5-one] | < 100
O=C1NCCOc2cc(-c3n[nH]c4ncc(-c5ccc6c(c5)CCN(C5CCCC5)CC6)cc34)ccc21 [Example 7, 8-[5-(3-Cyclopentyl-2,3,4,5-tetrahydro-1H-3-benzazepin-7-yl)-1H-pyrazolo[3,4-b]pyridin-3-yl]-2,3,4,5-tetrahydro-1,4-benzoxazepin-5-one] | < 100
O=C1NCCOc2cc(-c3n[nH]c4ncc(-c5ccc6c(c5)CCN(C5CC5)CC6)cc34)ccc21 [Example 20, 8-(5-(3-Cyclopropyl-2,3,4,5-tetrahydro-1H-benzo[d]azepin-7-yl)-1H-pyrazolo[3,4-b]pyridin-3-yl)-3,4-dihydrobenzo[f][1,4]oxazepin-5(2H)-one] | < 100
O=C1NCCOc2cc(-c3n[nH]c4ncc(-c5ccc6c(c5)CCC(N5CCCC5)CC6)cc34)ccc21 (racemic) [Example 1, 8-{5-[7-(Pyrrolidin-1-yl)-6,7,8,9-tetrahydro-5H-benzo[7]annulen-2-yl]-1H-pyrazolo[3,4-b]pyridin-3-yl}-2,3,4,5-tetrahydro-1,4-benzoxazepin-5-one] | < 100
O=C1NCCOc2cc(-c3n[nH]c4ncc(-c5ccc6c(c5)CCC(N[C@@H]5CCOC5)C6)cc34)ccc21 (stereo partly drawn) [Example 5, 8-[5-(6-{[(3R)—Oxolan-3-yl]amino}-5,6,7,8-tetrahydronaphthalen-2-yl)-1H-pyrazolo[3,4-b]pyridin-3-yl]-2,3,4,5-tetrahydro-1,4-benzoxazepin-5-one] | < 100
C[C@@H]1CCCN1C1CCc2cc(-c3cnc4[nH]nc(-c5ccc6c(c5)OCCNC6=O)c4c3)cc(Cl)c2CC1 (stereo partly drawn) [Example 65, 8-(5-{4-Chloro-7-[(2R)-2-methylpyrrolidin-1-yl]-6,7,8,9-tetrahydro-5H-benzo[7]annulen-2-yl}-1H-pyrazolo[3,4-b]pyridin-3-yl)-2,3,4,5-tetrahydro-1,4-benzoxazepin-5-one] | < 100
Cc1cc2c(cc1-c1cnc3[nH]nc(-c4ccc5c(c4)OCCNC5=O)c3c1)CCC(N1CCC[C@H]1C)CC2 (stereo partly drawn) [Example 64, 8-(5-{3-Methyl-7-[(2R)-2-methylpyrrolidin-1-yl]-6,7,8,9-tetrahydro-5H-benzo[7]annulen-2-yl}-1H-pyrazolo[3,4-b]pyridin-3-yl)-2,3,4,5-tetrahydro-1,4-benzoxazepin-5-one] | < 100
C[C@H]1CCCN1C1CCc2ccc(-c3cnc4[nH]nc(-c5ccc6c(c5)OCCNC6=O)c4c3)cc2CC1 (stereo partly drawn) [Example 43, 8-(5-{7-[(2S)-2-Methylpyrrolidin-1-yl]-6,7,8,9-tetrahydro-5H-benzo[7]annulen-2-yl}-1H-pyrazolo[3,4-b]pyridin-3-yl)-2,3,4,5-tetrahydro-1,4-benzoxazepin-5-one] | < 100
CC1(O)CCOc2cc(-c3n[nH]c4ncc(-c5ccc6c(c5)CCN(C5CCCC5)CC6)cc34)ccc21 (centres unmarked) [Example 26, 7-[5-(3-Cyclopentyl-2,3,4,5-tetrahydro-1H-3-benzazepin-7-yl)-1H-pyrazolo[3,4-b]pyridin-3-yl]-4-methyl-3,4-dihydro-2H-1-benzopyran-4-ol] | < 100
O=C1NCCOc2cc(-c3n[nH]c4ncc(-c5ccc6c(c5)CCC(NC5CCCC5)CC6)cc34)ccc21 (centres unmarked) [Example 42, 8-{5-[7-(Cyclopentylamino)-6,7,8,9-tetrahydro-5H-benzo[7]annulen-2-yl]-1H-pyrazolo[3,4-b]pyridin-3-yl}-2,3,4,5-tetrahydro-1,4-benzoxazepin-5-one] | < 100
O=C1NCCOc2cc(-c3n[nH]c4ncc(-c5ccc6c(c5)CCN(C5COC5)C6)cc34)ccc21 [Example 12, 8-(5-(2-(Oxetan-3-yl)-1,2,3,4-tetrahydroisoquinolin-6-yl)-1H-pyrazolo[3,4-b]pyridin-3-yl)-3,4-dihydrobenzo[f][1,4]oxazepin-5(2H)-one] | < 100
O=C1NCCOc2cc(-c3n[nH]c4ncc(-c5ccc6c(c5)CC[C@H](N5CCCC5)CC6)cc34)ccc21 (single isomer, unassigned) [Example 56] | < 100
C[C@@H]1CCCN1C1CCc2ccc(-c3cnc4[nH]nc(-c5ccc6c(c5)S(=O)(=O)NC6(C)C)c4c3)cc2CC1 (stereo partly drawn) [Example 33, 3,3-Dimethyl-6-(5-{7-[(2R)-2-methylpyrrolidin-1-yl]-6,7,8,9-tetrahydro-5H-benzo[7]annulen-2-yl}-1H-pyrazolo[3,4-b]pyridin-3-yl)-2,3-dihydro-1λ^6,2-benzothiazole-1,1-dione] | < 100

Further lines, results first:

IC50 [nM] | SMILES
< 100 | O=C1NCCOc2cc(-c3n[nH]c4ncc(-c5ccc6c(c5)CC(N5CCCC5)CC6)cc34)ccc21 (centres unmarked) [Example 3, 8-{5-[7-(Pyrrolidin-1-yl)-5,6,7,8-tetrahydronaphthalen-2-yl]-1H-pyrazolo[3,4-b]pyridin-3-yl}-2,3,4,5-tetrahydro-1,4-benzoxazepin-5-one]
< 100 | O=C1NCCOc2cc(-c3n[nH]c4ncc(-c5ccc6c(c5)CCC(N[C@H]5CCOC5)CC6)cc34)ccc21 (stereo partly drawn) [Example 45, 8-[5-(7-{[(3S)—Oxolan-3-yl]amino}-6,7,8,9-tetrahydro-5H-benzo[7]annulen-2-yl)-1H-pyrazolo[3,4-b]pyridin-3-yl]-2,3,4,5-tetrahydro-1,4-benzoxazepin-5-one]
< 100 | O=C1NCCOc2cc(-c3n[nH]c4ncc(-c5ccc6c(c5)CCC(N5CCC[C@H]5CO)CC6)cc34)ccc21 (stereo partly drawn) [Example 50, 8-(5-{7-[(2S)-2-(Hydroxymethyl)pyrrolidin-1-yl]-6,7,8,9-tetrahydro-5H-benzo[7]annulen-2-yl}-1H-pyrazolo[3,4-b]pyridin-3-yl)-2,3,4,5-tetrahydro-1,4-benzoxazepin-5-one]
< 100 | C[C@@H]1CCCN1C1CCc2ccc(-c3cnc4[nH]nc(-c5ccc6c(c5)C(=O)NC6(C)C)c4c3)cc2CC1 (stereo partly drawn) [Example 38, 3,3-Dimethyl-6-(5-{7-[(2R)-2-methylpyrrolidin-1-yl]-6,7,8,9-tetrahydro-5H-benzo[7]annulen-2-yl}-1H-pyrazolo[3,4-b]pyridin-3-yl)-2,3-dihydro-1H-isoindol-1-one]
< 100 | CC1(C)COc2cc(-c3n[nH]c4ncc(-c5ccc6c(c5)CCC(N5CCCC5)CC6)cc34)ccc2C(=O)N1 (centres unmarked) [Example 35, 3,3-Dimethyl-8-{5-[7-(pyrrolidin-1-yl)-6,7,8,9-tetrahydro-5H-benzo[7]annulen-2-yl]-1H-pyrazolo[3,4-b]pyridin-3-yl}-2,3,4,5-tetrahydro-1,4-benzoxazepin-5-one]
< 100 | C[C@@H]1CCCN1C1CCc2cc(F)c(-c3cnc4[nH]nc(-c5ccc6c(c5)OCCNC6=O)c4c3)cc2CC1 (stereo partly drawn) [Example 58, 8-(5-{3-Fluoro-7-[(2R)-2-methylpyrrolidin-1-yl]-6,7,8,9-tetrahydro-5H-benzo[7]annulen-2-yl}-1H-pyrazolo[3,4-b]pyridin-3-yl)-2,3,4,5-tetrahydro-1,4-benzoxazepin-5-one]
< 100 | C[C@@H]1CCCN1C1CCc2ccc(-c3cnc4[nH]nc(-c5cc6c(cc5F)C(=O)NCCO6)c4c3)cc2CC1 (stereo partly drawn) [Example 61, 7-Fluoro-8-(5-{7-[(2R)-2-methylpyrrolidin-1-yl]-6,7,8,9-tetrahydro-5H-benzo[7]annulen-2-yl}-1H-pyrazolo[3,4-b]pyridin-3-yl)-2,3,4,5-tetrahydro-1,4-benzoxazepin-5-one]
